Measured values from US9586943B2, “Bilaterally-substituted tricyclic compounds for the treatment of human immunodeficiency virus type-1 (HIV-1) infection and other diseases” (CENTRO DE INVESTIGACIÓN PRINCIPE FELIPE, priority 2013, dated 2017).
Where two headings read alike, the source gives them in different places.

Assays:
[1] = target: RRE-Rev34-50 interaction (RRE hairpin and frevp); assay: Fluorescence polarization displacement assay of the RRE-Rev34-50 interaction; assay type: binding, HIV-1
[2] = Cellular viability (CellTiter Glo); assay type: cell-based; details: human, MT-2 cells; 48 h, CellTiter Glo; read-out: CC50 (celular viability)
HIV-1 (NL4.3-Ren) = assay: microbe, parasite or virus in culture; assay type: cell-based; details: for EC50: read-out: EC50 (NL4.3-Ren)
[3] = tested on: Escherichia coli (ATCC 53868); assay: Disk diffusion assay (Kirby-Bauer), E. coli; assay type: cell-based; details: disk potency 20 μg, 8 mm discs, 16-18 hours at 37° C.
RREc hairpin = assay: SPR binding specificity relative to control RREc hairpin; design: species or system HIV-1
Procedure: (§1) The interaction of these biphenyl and terphenyl compounds with the RRE RNA hairpin (SEQ. ID. No 1) was analysed using surface plasmon resonance (SPR) experiments(19). In addition to the RRE, two control RREc (SEQ. ID. No 2) and TARc (SEQ. ID. No 3) hairpins were also immobilised on the chips. In the RREc hairpin the internal loop forming the Rev high-affinity binding site is replaced with a G:G opposition, whereas in the TARc hairpin this loop is substituted with the HIV-1 Tat-binding UCU bulge(20). In this way, applicants could simultaneously assess the interaction of each ligand with RRE, RREc and TARc, obtaining important information about binding selectivity. In addition, the SPR methodology allows deduction of binding stoichiometries, which are likewise related to the specificity of the interaction between a ligand and a given RNA species. These are key considerations in the nucleic acid recognition field(4, 5, 14).
(§2) The Surface Plasmon Resonance (SPR) experiments were carried out at 25° C. with a Biacore T100 optical biosensor system, 4-channel streptavidin-derivatized Series S SA chips, and either 10 mM MES (pH 6.25), 150 mM NaCl, 1 mM EDTA and 0.005% P20 or 10 mM HEPES pH 7.4, 150 mM NaCl, 3 mM EDTA and 0.005% P20 aqueous solutions as mobile phases. After immobilizing approximately 300 response units (RU) of the RRE, RREc and TARc RNA hairpins on the chips, the compounds were injected during 10-minute periods at a flow rate of 20 μL/min and at concentrations generally ranging from 0.01 μM to 100.0 μM, and then allowed to dissociate for 10 more minutes. The RNA surfaces were regenerated with solutions containing 0.5 to 1 M NaCl and 10 to 100 mM NaOH, depending on the ligand.
(§3) RNA-ligand SPR equilibrium dissociation constants (Kd) were determined by fitting the sensorgrams to one-site or two-site equations:
(§4) [formula] [formula] where RU is the response in the steady-state region of the sensorgrams, C is the concentration of free compound in equilibrium with the complex, RUmax is the maximum response and RI is an offset term accounting for the bulk refractive index contribution of the sample. In these models, Kd, RUmax and RI are adjustable parameters, and the stoichiometry of each binding site was determined by comparing the fitted RUmax values with the predicted ones, calculated from the molecular weights of RNA and compound and the amount of RNA in the flow cell(32). The two-site equation was only utilized if it provided a clear curve-fitting improvement over the one-site model. The specificity of the RRE interaction was quantified by calculating the Kd(RREc)/Kd(RRE) and Kd(RRE)/Kd(TARc) ratios. All SPR experiments were double-referenced(33).

TARc hairpin = assay: SPR binding specificity relative to control TARc hairpin; design: species or system HIV-1
Procedure: as §1, §2, §3
as §4, with “The specificity of the RRE interaction was quantified by calculating the Kd(RREc)/Kd(RRE) and Kd(RRE)/Kd(TARc) ratios.” left out

[4] = tested on: Staphilococcus aureus (ATCC 35556); assay: Disk diffusion assay (Kirby-Bauer), S. aureus; assay type: cell-based; details: disk potency 20 μg, 8 mm discs, 16-18 hours at 37° C.
HIV-1 LTR promoter = assay type: cell-based
[5] = target: RRE RNA hairpin (internal loop IIB); assay: SPR analysis of interaction with RRE RNA hairpin; assay type: binding, HIV-1
MT-2 cells = assay: Cellular viability (CellTiter Glo); assay type: cell-based
[6] = tested on: full-length competent HIV-1 clone; assay: microbe, parasite or virus in culture; assay type: cell-based; details: Human immunodeficiency virus 1, MT2, 48 h, read-out: EC50 post-integration
RRE hairpin = assay: Two-dimensional NMR (TOCSY) titration of the RRE hairpin; assay type: binding, HIV-1; details: D2O, pH 6.0
RRE-Rev = assay: microbe, parasite or virus in culture; assay type: cell-based, HIV-1
[7] = read-out: IC50 (RRE-Rev 50% inhibitory concentration), fluorescence polarization, 25° C., 60 nM RRE and 10 nM frevp
[8] = Human immunodeficiency virus 1, 48 h
[9] = fluorescence anisotropy, read-out: IC50 (RRE-Rev34-50 inhibition)
[10] = 25° C., pH 7.4, high affinity site when two-site model, footnote d compounds: ligand range 0.1-25 μM, read-out: Kd(RRE)

Structure (SMILES)	IC50 [1, 7]	CC50 at 48 h [2]	EC50 (HIV-1 (NL4.3-Ren); [8])	disk susceptibility of E. coli (diameter of the inhibition area) [3]	disk susceptibility of S. aureus (diameter of the inhibition area) [4]	inhibition of HIV-1 LTR-mediated transcription (in words) (HIV-1 LTR promoter)	cellular toxicity (in words) (MT-2 cells)	EC50 [6]	inhibition of HIV-1 replication (in words) (HIV-1 (NL4.3-Ren))	RRE interaction by NMR chemical shift perturbation (in words) (RRE hairpin)	Kd(RREc)/Kd(RRE) (RREc hairpin; 25° C., pH 7.4)	Kd(TARc)/Kd(RRE) (TARc hairpin; 25° C., pH 7.4)	Kd [5, 10]	other results
COc1cc(CCN)c(-c2ccc(-c3cc(CCN)c(O)c(CCN)c3)c(OC)c2)c(CCN)c1 [IIS-358, 2″,3,5,6″-Tetrakis(2-aminoethyl)-2′,4″-dimethoxy-(1,1′:4′,1″-terphenyl)-4-ol chlorhydrate]	808 ± 462 µM	> 100 µM	> 100 µM	inactive	inactive	inhibited transcription of the reporter gene	–	–	–	–	–	–	–	Kd(RREc)/Kd(RRE) (RREc hairpin; 25° C., pH 6.3): 1.9; Kd(TARc)/Kd(RRE) (TARc hairpin; 25° C., pH 6.3): 6.0; Kd ([5]; 25° C., pH 6.3, high affinity site when two-site model, JB-399 and IIS-530: ligand range 0.1-25 μM, read-out: Kd(RRE)): 13 ± 9 µM
COc1cc(CCN)c(-c2cc(C)c(-c3cc(CCN)c(OCc4ccccc4)c(CCN)c3)c(C)c2)c(CCN)c1 [IIS-375, 2,2′,2″,2′″-[4″-(Benzyloxy)-4-methoxy-3′,5′-dimethyl-(1,1′:4′,1″-terphenyl)-2,3″,5″,6-tetrayl]tetraethanamine chlorhydrate]	32.2 ± 2.3 µM	> 100 µM	24.8 µM	–	–	–	no cellular toxicity	21.4 µM	inhibited HIV-1 replication	–	–	–	–	–
COc1cc(CCN)c(-c2cc(C)c(-c3cc(CCN)c(O)c(CCN)c3)c(C)c2)c(CCN)c1 [IIS-420, 2″,3,5,6″-Tetrakis(2-aminoethyl)-4″-methoxy-2′,6′-dimethyl-(1,1′:4′,1″-terphenyl)-4-ol chlorhydrate]	–	> 100 µM	3.4 µM	–	–	inhibited transcription of the reporter gene	no cellular toxicity	5 µM	inhibited HIV-1 replication	greatest RNA chemical shift variations	–	–	–	IC50 [1, 9]: 6.8 µM; IC50 (RRE-Rev; Human immunodeficiency virus 1, read-out: IC50 (RRE-Rev), pCMV-Rev 20 ng, pDM628 500 ng/well): 10.4 ± 2.4 µM; IC50 (RRE-Rev; Human immunodeficiency virus 1, read-out: IC50 (RRE-Rev), pCMV-Rev 200 ng, pDM628 500 ng/well): 21.4 ± 6.3 µM; IC50 (RRE-Rev; Human immunodeficiency virus 1, read-out: IC50 (RRE-Rev), pCMV-Rev 500 ng, pDM628 500 ng/well): 50 to 100 µM; IC50 (RRE-Rev; Human immunodeficiency virus 1, read-out: IC50 (Rev-mediated transport of RRE-containing RNA), depends on concentration of Rev-encoding plasmid): 10.4 to 21.4 µM
CCc1cc(-c2c(CCN)cc(OC)cc2CCN)ccc1-c1cc(CCN)c(OCc2ccccc2)c(CCN)c1 [IIS-758, 2,2′,2″,2′″-[4″-(Benzyloxy)-3′-ethyl-4-methoxy-(1,1′:4′,1″-terphenyl)-2,3″,5″,6-tetrayl]tetraethanamine chlorhydrate]	78.1 ± 6.5 µM	> 100 µM	32.3 µM	–	–	inhibited transcription of the reporter gene	no cellular toxicity	17 µM	inhibited HIV-1 replication	–	1.3	2.0	16.7 ± 1.6 µM	–
CCc1cc(-c2c(CCN)cc(OC)cc2CCN)cc(CC)c1-c1cc(CCN)c(OCc2ccccc2)c(CCN)c1 [IIS-771, 2,2′,2″,2′″-(4″-(benzyloxy)-3′,5′-diethyl-4-methoxy-[1,1′:4′,1″-terphenyl]-2,3″,5″,6-tetrayl)tetraethanamine]	77.2 ± 15.5 µM	> 100 µM	42.6 µM	–	–	–	no cellular toxicity	> 100 µM	inhibited HIV-1 replication	–	1.0	1.7	17.6 ± 1.8 µM	–
CCc1cc(-c2c(CCN)cc(OC)cc2CCN)cc(CC)c1-c1cc(CCN)c(O)c(CCN)c1 [IIS-806, 2″,3,5,6″-Tetrakis(2-aminoethyl)-2′,6′-diethyl-4″-methoxy-(1,1′:4′,1″-terphenyl)-4-ol chlorhydrate]	56.4 ± 13.5 µM	> 100 µM	64.1 µM	–	–	–	no cellular toxicity	–	inhibited HIV-1 replication	greatest RNA chemical shift variations	1.1	1.3	8.1 ± 1.1 µM	–
NCCc1cc(-c2cc(CCN)c(O)c(CCN)c2)cc(CCN)c1O [JB-391, 3,3′,5,5′-tetrakis(2-aminoethyl)-[1,1′-biphenyl]-4,4′-diol]	–	> 100 µM	50 to 100 µM	inactive	inactive	–	–	> 100 µM	–	unspecific	–	–	–	IC50 [1, 9]: 7.7 µM
NC[C@@H]1O[C@H](O[C@H]2[C@@H](O)[C@H](O[C@@H]3[C@@H](O)[C@H](N)C[C@H](N)[C@H]3O[C@H]3O[C@H](CN)[C@@H](O)[C@H](O)[C@H]3N)O[C@@H]2CO)[C@H](N)[C@@H](O)[C@@H]1O [Neomycin B, neomycin B, reference compound]	–	–	–	15.2 ± 2.1	12.8 ± 1.9	–	–	–	–	unspecific	–	–	–	Ki ([1]; calculated from IC50, assuming one ligand molecule displaces frevp, read-out: Ki inhibition constant): 2 ± 0.2 µM; CC50 (MT-2 cells; 48 h, CellTiter Glo, read-out: CC50 (celular viability)): > 100 µM; EC50 (HIV-1 (NL4.3-Ren); HIV-1 infection assay, 48 h post-infection): > 100 µM; Kd(RREc)/Kd(RRE) (RREc hairpin): 0.9; Kd(TARc)/Kd(RRE) (TARc hairpin): 2.3; Kd ([5]; higher affinity site, read-out: equilibrium dissociation constant Kd (RRE)): 2.4 ± 1.1 µM
